The source of these data is US9725445B2, “Cycloalkyl nitrile pyrazolo pyridones as Janus kinase inhibitors” (Merck Sharp & Dohme Corp., priority 2013, dated 2017).

SMILES strings stand for the structures.

Chain of JAK1 (P23458 875-1153): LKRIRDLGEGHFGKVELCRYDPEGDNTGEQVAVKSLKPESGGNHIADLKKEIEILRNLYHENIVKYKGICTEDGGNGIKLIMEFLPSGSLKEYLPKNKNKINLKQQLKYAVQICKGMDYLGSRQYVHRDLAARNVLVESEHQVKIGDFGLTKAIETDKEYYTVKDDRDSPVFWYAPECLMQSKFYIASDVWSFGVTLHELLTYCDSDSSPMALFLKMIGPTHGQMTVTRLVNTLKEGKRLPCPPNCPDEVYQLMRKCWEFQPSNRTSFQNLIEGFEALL

The experiment concerns the target JAK1 (Homo sapiens (Human), UniProt P23458). Kind of experiment: Jak biochemical HTRF assay, JAK1. As to conditions: HTRF biochemical assay, recombinant GST-tagged catalytic domain; read-out: JAK1 IC50. On the procedure: Jak Biochemical HTRF Assay Protocol
The ability of compounds to inhibit the activity of JAK1, JAK2, JAK3, and Tyk2 was measured using a recombinant purified GST-tagged catalytic domain for each enzyme (Invitrogen JAK1 #M4290, JAK2 #M4290, JAK3 #M4290, Tyk2 #M4290) in an HTRF format biochemical assay. […] The basic assay protocol is as follows: First, 250 nL of diluted compounds in DMSO were dispensed into the wells of a dry 384-well Black plate (Greiner #781076) using a Labcyte Echo 555 acoustic dispenser. Subsequent reagent additions employed an Agilent Bravo. […] After equilibration, 2 μL of 10×ATP in 1× assay buffer was added to initiate the kinase reaction and the plates were shaken and then incubated at room temperature for 120 minutes. […] Plates were shaken and centrifuged and then incubated 60 minutes at room temperature and then read on a Perkin Elmer Envision (λex=337 nm, λem=665 and 615 nm, TRF delay time=20 μs). HTRF signal=10,000*665 nm reading/615 nm reading. After normalization to untreated controls, the percent inhibition of the HTRF signal at each compound concentration was calculated. The plot of percent inhibition versus the log of compound concentration was fit with a 4-parameter dose response equation to calculate IC50 values.
Final Reaction Conditions were:
Examples of the instant invention were evaluated in JAK1 and JAK2 in vitro binding assays.
In general terms: In TR-FRET formats the signal depends on donor and acceptor labels being close together.
`CC1NCc2cc(Nc3nn([C@H]4CCCC[C@@H]4C#N)c4cc[nH]c(=O)c34)ccc21` (mixture of isomers) [Example 12-3, (1S,2S)-2-(3-{[(1S and 1R)-1-methyl-2,3-dihydro-1H-isoindol-5-yl]amino}-4-oxo-4,5-dihydro-1H-pyrazolo[4,3-c]pyridin-1-yl)cyclohexanecarbonitrile]: the IC50 – broadly, the concentration needed to halve the response being measured – is 0.81 nM. Then `N#C[C@@H]1CCCC[C@@H]1n1nc(Nc2ccc(F)cc2)c2c(=O)[nH]ccc21` (racemic) [Example 1-1, (cis)-2-{3-[(4-Fluorophenyl)amino]-4-oxo-4,5-dihydro-1H-pyrazolo[4,3-c]pyridin-1-yl}cyclohexanecarbonitrile], with 2.5 nM. `N#C[C@H]1CCCC[C@@H]1n1nc(Nc2ccc(F)cc2)c2c(=O)[nH]ccc21` (racemic) [Example 2-1, (trans)-2-{3-[(4-Fluorophenyl)amino]-4-oxo-4,5-dihydro-1H-pyrazolo[4,3-c]pyridin-1-yl}cyclohexanecarbonitrile]: the IC50 is 0.56 nM. Then `N#C[C@H]1CCCC[C@@H]1n1nc(Nc2ccc([C@]3(O)CC[C@@H](C(=O)O)CC3)cc2)c2c(=O)[nH]ccc21` (racemic) [Example 17-1, (1R,4S and 1S,4R)-4-(4-(1-((1S,2S)-2-Cyanocyclohexyl)-4-oxo-4,5-dihydro-1H-pyrazolo[4,3-c]pyridin-3-ylamino)phenyl)-4-hydroxycyclohexanecarboxylic acid], with 0.095 nM. As for `CC(C)OC(=O)C(C)(C)C(O)(c1ccc(Nc2nn([C@H]3CCCC[C@@H]3C#N)c3cc[nH]c(=O)c23)cc1)C(F)(F)F` (single isomer, unassigned) [Example 3-119, (R or S) Isopropyl 3-(4-((1-((1S,2S)-2-cyanocyclohexyl)-4-oxo-4,5-dihydro-1H-pyrazolo[4,3-c]pyridin-3-yl)amino)phenyl)-4,4,4-trifluoro-3-hydroxy-2,2-dimethylbutanoate], the figure is 5.3 nM; as for `CC(C)OC(=O)C(C)(C)C(O)(c1ccc(Nc2nn([C@H]3CCCC[C@@H]3C#N)c3cc[nH]c(=O)c23)cc1)C(F)(F)F` (single isomer, unassigned) [Example 3-120, (R or S) Isopropyl 3-(4-((1-((1S,2S)-2-cyanocyclohexyl)-4-oxo-4,5-dihydro-1H-pyrazolo[4,3-c]pyridin-3-yl)amino)phenyl)-4,4,4-trifluoro-3-hydroxy-2,2-dimethylbutanoate], 1 nM; as for `N#C[C@H]1CCCC[C@@H]1n1nc(Nc2ccc3c(c2)CC2(CC2)C3(O)C(F)(F)F)c2c(=O)[nH]ccc21` (single isomer, unassigned) [Example 3-123, (1S,2S)-2-(3-(((R or S)-1′-hydroxy-1′-(trifluoromethyl)-1′,3′-dihydrospiro[cyclopropane-1,2′-inden]-5′-yl)amino)-4-oxo-4,5-dihydro-1H-pyrazolo[4,3-c]pyridin-1-yl)cyclohexanecarbonitrile], 0.18 nM. Turning to `N#C[C@H]1CCCC[C@@H]1n1nc(Nc2ccc3c(c2)CC2(CC2)C3(O)C(F)(F)F)c2c(=O)[nH]ccc21` (single isomer, unassigned) [Example 3-124, (1S,2S)-2-(3-(((R or S)-1′-hydroxy-1′-(trifluoromethyl)-1′,3′-dihydrospiro[cyclopropane-1,2′-inden]-5′-yl)amino)-4-oxo-4,5-dihydro-1H-pyrazolo[4,3-c]pyridin-1-yl)cyclohexanecarbonitrile], the IC50 is 0.23 nM.

For the compound `CC1c2cc(Nc3nn([C@H]4CCCC[C@@H]4C#N)c4cc[nH]c(=O)c34)ccc2S(=O)(=O)N1CC(F)(F)F` (single isomer, unassigned) [Example 3-128, (1S,2S)-2-(3-(((R or S)-3-methyl-1,1-dioxido-2-(2,2,2-trifluoroethyl)-2,3-dihydrobenzo[d]isothiazol-5-yl)amino)-4-oxo-4,5-dihydro-1H-pyrazolo[4,3-c]pyridin-1-yl)cyclohexanecarbonitrile], the IC50 is 0.095 nM. Then `CC1c2cc(Nc3nn([C@H]4CCCC[C@@H]4C#N)c4cc[nH]c(=O)c34)ccc2S(=O)(=O)N1CC(F)(F)F` (single isomer, unassigned) [Example 3-129, (1S,2S)-2-(3-(((R or S)-3-methyl-1,1-dioxido-2-(2,2,2-trifluoroethyl)-2,3-dihydrobenzo[d]isothiazol-5-yl)amino)-4-oxo-4,5-dihydro-1H-pyrazolo[4,3-c]pyridin-1-yl)cyclohexanecarbonitrile], with 1.1 nM. Then `CC(C)(C)OC(=O)C1CCC(N2Cc3cc(Nc4nn([C@H]5CCCC[C@@H]5C#N)c5cc[nH]c(=O)c45)ccc3C2=O)CC1` (single isomer, unassigned) [Example 3-134, (cis or trans)tert-butyl 4-(5-((1-((1S,2S)-2-cyanocyclohexyl)-4-oxo-4,5-dihydro-1H-pyrazolo[4,3-c]pyridin-3-yl)amino)-1-oxoisoindolin-2-yl)cyclohexanecarboxylate], with 0.16 nM; and `CC(C)(C)OC(=O)C1CCC(N2Cc3cc(Nc4nn([C@H]5CCCC[C@@H]5C#N)c5cc[nH]c(=O)c45)ccc3C2=O)CC1` (single isomer, unassigned) [Example 3-135, (cis or trans)tert-butyl 4-(5-((1-((1S,2S)-2-cyanocyclohexyl)-4-oxo-4,5-dihydro-1H-pyrazolo[4,3-c]pyridin-3-yl)amino)-1-oxoisoindolin-2-yl)cyclohexanecarboxylate], with 0.22 nM. Turning to `CC1(C)C(O)c2cc(Nc3nn([C@H]4CCCC[C@@H]4C#N)c4cc[nH]c(=O)c34)ccc2S1(=O)=O` (single isomer, unassigned) [Example 3-172, (1S,2S)-2-(3-{[(3S or 3R)-3-hydroxy-2,2-dimethyl-1,1-dioxido-2,3-dihydro-1-benzothiophen-5-yl]amino}-4-oxo-4,5-dihydro-1H-pyrazolo[4,3-c]pyridin-1-yl)cyclohexanecarbonitrile], the IC50 was 0.39 nM. As to `CC1(C)C(O)c2cc(Nc3nn([C@H]4CCCC[C@@H]4C#N)c4cc[nH]c(=O)c34)ccc2S1(=O)=O` (single isomer, unassigned) [Example 3-173, (1S,2S)-2-(3-{[(3R or 3S)-3-hydroxy-2,2-dimethyl-1,1-dioxido-2,3-dihydro-1-benzothiophen-5-yl]amino}-4-oxo-4,5-dihydro-1H-pyrazolo[4,3-c]pyridin-1-yl)cyclohexanecarbonitrile], the IC50 was 0.094 nM. Then `CC(C)(C)N1Cc2cc(Nc3nn([C@H]4CCCCC[C@@H]4C#N)c4cc[nH]c(=O)c34)ccc2S1(=O)=O` (single isomer, unassigned) [Example 3-176, (1S,2S or 1R,2R)-2-{3-[(2-tert-butyl-1,1-dioxido-2,3-dihydro-1,2-benzisothiazol-5-yl)amino]-4-oxo-4,5-dihydro-1H-pyrazolo[4,3-c]pyridin-1-yl}cycloheptanecarbonitrile], with 1.9 nM. As for `CC(C)(C)N1Cc2cc(Nc3nn([C@@H]4CCCCC[C@H]4C#N)c4cc[nH]c(=O)c34)ccc2S1(=O)=O` (single isomer, unassigned) [Example 3-177, (1R,2R or 1S,2S)-2-{3-[(2-tert-butyl-1,1-dioxido-2,3-dihydro-1,2-benzisothiazol-5-yl)amino]-4-oxo-4,5-dihydro-1H-pyrazolo[4,3-c]pyridin-1-yl}cycloheptanecarbonitrile], the half-maximal inhibitory concentration (IC50) was 0.046 nM. In the case of `CC(C)(C)N1Cc2cc(Nc3nn([C@H]4CCCCC[C@H]4C#N)c4cc[nH]c(=O)c34)ccc2S1(=O)=O` (single isomer, unassigned) [Example 3-178, (1R,2S or 1S,2R)-2-{3-[(2-tert-butyl-1,1-dioxido-2,3-dihydro-1,2-benzisothiazol-5-yl)amino]-4-oxo-4,5-dihydro-1H-pyrazolo[4,3-c]pyridin-1-yl}cycloheptanecarbonitrile], the IC50 is 0.84 nM. As for `CC(C)(C)N1Cc2cc(Nc3nn([C@@H]4CCCCC[C@@H]4C#N)c4cc[nH]c(=O)c34)ccc2S1(=O)=O` (single isomer, unassigned) [Example 3-179, (1S,2R or 1R,2S)-2-{3-[(2-tert-butyl-1,1-dioxido-2,3-dihydro-1,2-benzisothiazol-5-yl)amino]-4-oxo-4,5-dihydro-1H-pyrazolo[4,3-c]pyridin-1-yl}cycloheptanecarbonitrile], the figure is 0.46 nM; as for `CN(C)C(c1ccc(Nc2nn([C@H]3CCCC[C@@H]3C#N)c3cc[nH]c(=O)c23)cc1)C(F)(F)F` (single isomer, unassigned) [Example 9-3, (1S,2S)-2-(3-(4-((S or R)-1-(Dimethylamino)-2,2,2-trifluoroethyl)phenylamino)-4-oxo-4,5-dihydropyrazolo[4,3-c]pyridin-1-yl)cyclohexanecarbonitrile], 0.16 nM; as for `CN(C)C(c1ccc(Nc2nn([C@H]3CCCC[C@@H]3C#N)c3cc[nH]c(=O)c23)cc1)C(F)(F)F` (single isomer, unassigned) [Example 9-4, (1S,2S)-2-(3-(4-((R or S)-1-(Dimethylamino)-2,2,2-trifluoroethyl)phenylamino)-4-oxo-4,5-dihydropyrazolo[4,3-c]pyridin-1-yl)cyclohexanecarbonitrile], 0.11 nM.
